The test system of series [1] is ECV-304. As to the kind of experiment: Cytotoxicity against human ECV304 cells after 72 hrs by Hoechst 33258 staining based fluorescence assay. The series is classed as functional, cell-based. To be noted: ECV-304, 72 h.
The subject of series [2] is ECV-304. The experiment in a line: Membranolytic activity in human ECV304 cells assessed as leakage of intracellular lactate dehydrogenase after 2 hrs by spectrophotometry. The series is classed as functional, cell-based. To be noted: ECV-304, 2 h.
The nature of series [3]: Reduction in surface tension in 0.1 M PBS after 10 mins by Wilhelmy plate method using tensitometer. Format: physicochemical.
A short description of series [4]: Critical micellar concentration of the compound in 0.1 M PBS after 10 mins by Wilhelmy plate method using tensitometer. The series is classed as physicochemical. To be noted: buffer.

`C[C@@H]1O[C@@H](O[C@H]2[C@H](O[C@H]3CC[C@@]4(C)[C@@H](CC[C@]5(C)[C@@H]4CC=C4[C@@H]6CC(C)(C)CC[C@]6(C(=O)O)CC[C@]45C)[C@]3(C)CO)OC[C@H](O)[C@@H]2O)[C@H](O)[C@H](O)[C@H]1O` [ALPHA-HEDERIN]: the IC50 with ECV-304 [1] amounted to 35 µM; with ECV-304 [2], 29 µM. Moreover, a half-maximal response in series [3] (EC50 at 10 min) required 4 µM. Besides, the CMC in series [4] stood at 13 µM.

As for `CC[C@H](CC[C@@H](C)[C@H]1CC[C@H]2[C@@H]3CC=C4C[C@@H](O)CC[C@]4(C)[C@H]3CC[C@]12C)C(C)C` [BETA-SITOSTEROL], the figures for the IC50 in the series on ECV-304 [1] and with ECV-304 [2] were 61 µM and 472 µM, respectively. The compound further yielded an EC50 at 10 min in series [3] of 19 µM. Moreover, in series [4], the CMC worked out at 241 µM.

Take `C[C@@H]1CC[C@@]2(OC1)O[C@H]1[C@@H](O)[C@H]3[C@@H]4CC[C@H]5C[C@@H](O[C@@H]6O[C@H](CO)[C@H](O[C@@H]7O[C@H](CO)C(O)[C@H](O[C@@H]8OC[C@@H](O)[C@H](O)[C@H]8O)[C@H]7O[C@@H]7O[C@H](CO)[C@H](O)[C@H](O[C@@H]8O[C@H](CO)[C@@H](O)[C@H](O)[C@H]8O)[C@H]7O)[C@H](O)[C@H]6O)[C@H](O)C[C@]5(C)[C@H]4CC[C@]3(C)[C@H]1[C@@H]2C` (some centres undefined) [DIGITONIN]: the IC50 in the series on ECV-304 [1] is 13 µM; in the series with ECV-304 [2] it was 15 µM. This compound also showed an EC50 at 10 min in series [3] of 8 µM. In series [4], this compound gave a CMC of 163 µM.

Take `CC1(C)[C@@H](O)CC[C@]2(C)[C@H]3C(=O)C=C4[C@@H]5C[C@@](C)(C(=O)O)CC[C@]5(C)CC[C@@]4(C)[C@]3(C)CC[C@@H]12` [ENOXOLONE]: the IC50 turned out to be 101 µM with ECV-304 [1] and 292 µM with ECV-304 [2]. The compound further came in with an EC50 at 10 min in series [3] of 16 µM. Besides, in series [4], the CMC is 106 µM.

In the case of `CC(C)=CCC[C@](C)(O)[C@H]1CC[C@]2(C)[C@@H]1[C@H](O)C[C@@H]1[C@@]3(C)CC[C@H](O)C(C)(C)[C@@H]3[C@@H](O[C@@H]3O[C@H](CO)[C@@H](O)[C@H](O)[C@H]3O[C@@H]3O[C@@H](C)[C@H](O)[C@@H](O)[C@H]3O)C[C@]12C` [GINSENOSIDE RG2], the IC50 is over 127 µM in the series on ECV-304 [1] and 783 µM in the series with ECV-304 [2]. The EC50 at 10 min in series [3] was 25 µM. Also, the CMC in series [4] was over 127 µM.

For the compound `C[C@@H]1O[C@@H](O[C@H]2[C@H](O[C@H]3CC[C@@]4(C)[C@@H](CC[C@]5(C)[C@@H]4CC=C4[C@@H]6CC(C)(C)CC[C@]6(C(=O)O[C@@H]6O[C@H](CO[C@@H]7O[C@H](CO)[C@@H](O[C@@H]8O[C@@H](C)[C@H](O)[C@@H](O)[C@H]8O)[C@H](O)[C@H]7O)[C@@H](O)[C@H](O)[C@H]6O)CC[C@]45C)[C@]3(C)CO)OC[C@H](O)[C@@H]2O)[C@H](O)[C@H](O)[C@H]1O` [KALOPANAXSAPONIN B], the IC50 with ECV-304 [1] and with ECV-304 [2] was over 164 µM each time. Also, the midpoint of the response in series [3], the EC50 at 10 min, lay at 10 µM. The CMC in series [4] was determined as 82 µM.

Broadly, the IC50 is the concentration needed to halve the response being measured. What is called EC50 is the concentration that produces a half-maximal response. Lower therefore signals greater potency.

(Values after ChEMBL document CHEMBL2021870, “Saponins can perturb biologic membranes and reduce the surface tension of aqueous solutions: a correlation?” (Bioorg Med Chem, 2012).)
